Laboratory results taken from patent US8846345B2, “Recombinant cell line” (The Queen's University of Belfast, priority 2002, dated 2014).

B1: IL-12 α-chain (p35), carboxyterminal hexahistidine-tagged (ligand)
chain: RNLPVATPDPGMFPCLHHSQNLLRAVSNMLQKARQTLEFYPCTSEEIDHEDITKDKTSTVEACLPLELTKNESCLNSRETSFITNGSCLASRKTSFMMALCLSSIYEDLKMYQVEFKTMNAKLLMDPKRQIFLDQNMLAVIDELMQALNFNSETVPQKSSLEEPDFYKTKIKLCILLHAFRIRAVTIDRVMSYLNASHHHHHH
notes: mature; Expressed in EcR293 or HIBERNIA.1 cells from pIND-p35H or pIND(SP1)-p35H; N-glycosylated; also called p35H; His-tagged α-chain
B2: IL-12 β-chain (p40), carboxyterminally hexahistidine-tagged (HIBERNIA.1 cells, pIND(SP1)-p40H) (ligand)
chain: IWELKKDVYVVELDWYPDAPGEMVVLTCDTPEEDGITWTLDQSSEVLGSGKTLTIQVKEFGDAGQYTCHKGGEVLSHSLLLLHKKEDGIWSTDILKDQKEPKNKTFLRCEAKNYSGRFTCWWLTTISTDLTFSVKSSRGSSDPQGVTCGAATLSAERVRGDNKEYEYSVECQEDSACPAAEESLPIEVMVDAVHKLKYENYTSSFFIRDIIKPDPPKNLQLKPLKNSRQVEVSWEYPDTWSTPHSYFSLTFCVQVQGKSKREKKDRVFTDKTSATVICRKNASISVRAQDRYYSSSWSEWASVPCSHHHHHH
notes: mature; Secreted by HIBERNIA.1 cells as a monomer (about 40 kD) and as a disulfide-bonded homodimer (about 80 kD); also called β chain homodimer (80 kD form)

Columns and labels:
[1] = test system: IL-12 α and β monomer forms; test: Inhibitor assay: secretion of IL-12 α and β monomer forms; conditions: 16 hr treatment
EcR293 cells = test: MTT cytotoxicity test; type: cell-based, human
Experimental: The mitochondrial ...MTT test is widely use as a cytotoxicity test. This test is principally based on the propensity of mitochondrial dehydrogenases to cleave the tetrazolium ring of. The viability of cells is proportional to the activity of mitochondrial dehydrogenases. Cleavage of the tetrazolium ring results in the formation of purple formazan crystals. We used the MTT assay to quantify cytotoxicity of celecoxib on EcR293 cells. The test was performed in 96-well plates in which 10^5 cells per well were plated the day before application of the MTT test. Following addition of celecoxib to the culture medium, cells were induced by ponasterone A, as explained before. After 16 hours of induction, the MTT reagent (10 μl of 100 mg/ml stock solution) was added to the cells. Two hours later, the medium was removed, and the cells were dissolved in DMSO. DMSO solubilizes formazan crystals. Absorbance was measured at 550 nm using a 96-well plate spectrophotometer.

mRNA of IL-12 = test: Effect on IL-12 mRNA; type: cell-based, human
[2] = target: the molecule itself; test: non-reducing SDS-PAGE of medium of recombinant cell lines secreting the α chain
[3] = target: B2; test: co-expression; non-reducing and reducing SDS-PAGE with anti-α-chain and anti-β-chain immunoblots
[4] = target: the molecule itself; test: non-reducing SDS-PAGE and anti-β-chain immunoblot of secreted fraction

Molecule: CNc1ccc2oc(C[C@H]3O[C@@]4(CC[C@H]3C)O[C@H]([C@H](C)C(=O)c3ccc[nH]3)[C@H](C)C[C@H]4C)nc2c1C(=O)O [A23187]
secretion of IL-12 α and β monomer forms [1]: suppressed by neither
concentration at which toxicity was observed (MTT test) (EcR293 cells; 16 hr test period): > 10 µM

Molecule: C/C=C(/C)C(=O)O[C@H]1C(C)=C2[C@H]([C@@H]1OC(=O)CCCCCCC)[C@@](C)(OC(C)=O)C[C@H](OC(=O)CCC)[C@@]1(O)[C@H]2OC(=O)[C@@]1(C)O [thapsigargin]
secretion of IL-12 α and β monomer forms [1]: suppressed by neither
concentration at which toxicity was observed (MTT test) (EcR293 cells; human, 16 h): 5 to 10 µM

Molecule: Cc1ccc(-c2cc(C(F)(F)F)nn2-c2ccc(S(N)(=O)=O)cc2)cc1 [Celecoxib, 4-[5-(4-methylpheny)-3-(trifluoromethyl)-IH-pyrazol-I-yl]benzenesulfonamide]
effect on mRNA of IL-12 (mRNA of IL-12): no effect
concentration at which toxicity was observed (MTT test) (EcR293 cells; human, 16 h): ≥ 100 µM

Molecule: B1
binding result [2]: no binding
binding result [3]: binds

Molecule: B2
binding result [4]: binds
